Reference: patent US20220306653A1, “MACROCYCLIC INHIBITORS OF MCL-1” (Janssen Pharmaceutica NV, priority 2019, published 2022)
Where “and” joins values, the source holds several entries; their conditions need not be identical. Equal values may be shown once. Read-outs that look alike come from different tables or passages of the source.

How the values were obtained:
MOLP8 cells = test: MOLP8 CellEvent Caspase-3/7 Green apoptosis activation assay (IncuCyte live-cell kinetic readout); format: cell-based; details: each independent run listed
Procedure: MCL-1 is a regulator of apoptosis and is highly over-expressed in tumor cells that escape cell death. The assay evaluates the cellular potency of small-molecule compounds targeting regulators of the apoptosis pathway, primarily MCL-1, Bfl-1, Bcl-2, and other proteins of the Bcl-2 family. Protein-protein inhibitors disrupting the interaction of anti-apoptotic regulators with BH3-domain proteins initiate apoptosis.
Activation of the apoptotic pathway was measured using the CellEvent™ Caspase-3/7 Green ReadyProbes™ Reagent (Thermo Fisher C10423, C10723). This assay produces a green fluorescent stain in cells that enter the apoptosis pathway. CellEvent® Caspase-3/7 Green reagent is a four amino acid peptide (DEVD) conjugated to a nucleic acid-binding dye that is non-fluorescent when not bound to DNA. The CellEvent® Caspase-3/7 Green reagent is intrinsically non-fluorescent, as the DEVD peptide inhibits binding of the dye to DNA. Upon activation of caspase-3/7 in apoptotic cells, the DEVD peptide is cleaved and the free dye can bind DNA, generating a bright green fluorescence. The activation of Caspase-3 and Caspase-7 is downstream of inhibition of MCL-1 or other apoptosis inhibiting proteins in cell lines that are dependent on them.
The live-cell readout on the IncuCyte permits tracking over time of the Caspase activation. […] The IncuCyte readout also allows one to normalize for cell number, as the suspension cells are hard to distribute evenly.
Signals were measured every 2 h for a duration of 22 h. The ratio of the Caspase mask to the Confluence mask, per image, as raw data, was calculated and the kinetic trace for every well was exported to Genedata Screener for analysis.
In Genedata Screener values for 6 h, 12 h, and 22 h from the kinetic traces were extracted. The values were normalized against negative controls (untreated cells). A standard dose-response analysis was performed on the normalized data.
The following data was reported at each of the following three aforementioned time points: (a) The dose-response curve, (b) The qAC50 and qAC50 Mode, and (c) Max Activity.
Cells were maintained in culture medium containing 10% Heat Inactivated (HI) FBS, 2 mM L-Glutamine and 50 µg/mL Gentamycin phenol red free RPMI-1640. Cells were split at 0.4 million/mL twice a week.
On Day 1, plates containing individual wells with test compounds at 10 mM concentration, 150 nL per well. The final concentrations range from […] compound (and no compound control) and compounds were thawed at room temperature for 1 hour. 25 μl of prewarmed medium was added into each well by multidrop (column 1, 3-22, 24), followed by addition of DMSO control (0.6% DMSO) in column 2. The plate was sealed using Breathe-Easy® sealing membrane and shaken for 30 min at room temperature to dissolve the test compound(s) in medium. The plate was then kept in the incubator for 1 hour at 37° C., 5% CO2.
MOLP8 cells in medium at […] (20000/50 μl final in assay) were prepared with CellEvent™ Caspase-3/7 Green Detection Reagent at 4 μM (2 μM final in assay). Once prepared, the cells were added to the test compound plate in an amount of 20000 and the plate was immediately placed in the IncuCyte and imaging started using following settings: 10× objective, 2 s exposure time in green channel, interval of 2 h, acquisition stopped after 22 h.
For analysis in IncuCyte, a Basic Analysis protocol was defined to calculate the “confluence” and “caspase” areas from the “Phase” and “green” images, respectively, as follows: (a) Confluence: Segmentation Adjustment 1, Hole Fill 0, Adjust Size −2, No filters (b) Caspase: Top-Hat segmentation, Radius 10, Threshold 0.3 GCU, Edge Split On with sensitivity 0, Hole Fill 0, Adjust Size 1, and filter on a minimum Area of 20 μm^2. The analyzer is trained on a sufficient number of positive and negative control wells, as well as compound treated wells, verifying that the “confluence” layer detects both live and dead (condensed) cells. […]

[1] = tested on: Molp8 multiple myeloma cell line; test: Molp8 multiple myeloma cell line survival assay using Annexin V and 7AAD; format: cell-based, human; details: live cell percent by Annexin V/7AAD flow cytometry, 3 days incubation; each independent run listed individually; read-out: MOLP8 Apoptosis IC50
Text: Molp8 multiple myeloma cell line survival assay using Annexin V and 7AAD.
The Annexin V/7AAD principle is based on the location of phosphatidylserine in the plasma membrane and the integrity of the membrane barrier. During early apoptosis, phosphatidylserine loses its normal distribution patterns in the inner leaflet of the plasma membrane and appears on the exterior of the plasma membrane. Annexin proteins are calcium dependent phospholipid binding proteins and can bind phosphatidylserine on the outer membrane during cell death. The viability dye 7AAD is excluded from entering cells with intact plasma membranes but accumulates in cells that have lost membrane integrity. Annexin Fitc is excited by the 488 nm laser (max excitation: 490 nm, max emission: 525 nm) as is 7AAD (excitation: 488 nm, emission: 650 nm), which allows this assay to be completed on any multicolor flow cytometer.
The assay conditions were optimized using the following 1× reaction buffer: 5 mM HEPES (4-(2-hydroxyethyl)-1-piperazineethanesulfonic acid), 70 mM NaCl, 1.25 mM CaCl2, pH 7.4.
The Molp 8 cells were multiple myeloma, human, in suspension (*cells were counted 2× per week and culture density maintained between 0.5 and 1.5×10^6 cells per ml).
On Day 1, 5×10^4 live cells per well were plated in a 96-well U-bottom plate, with the cells plated in 100 uL RPMI+10% FBS. An 11-point compound dilution plate was prepared in 3-fold steps (Final concentration range 10 μM-0.1 nM) and added at a concentration of 1 μL per well. The plate was then incubated for 3 days at 37° C. and 5% CO2.
On Day 4, the cells were pelleted and the media discarded. The cells were then resuspended in 50 μL AnnexinV-Fitc (1:40 dilution) and 7AAD (1:100 dilution) in Annexin binding buffer, then incubated for 30 min @ room temperature in the dark. 50 μL binding buffer (100 uL total volume) was then added to the cells. There was no wash step required.
Within 2 hours, PeCy5 (7AAD) and Fitc (Annexin) channels were recorded using BD Canto, collecting a minimum per singlet of 10,000 events.
The activity of a test compound was calculated based on the live cell percentage. • LC=Median of the low control values • =Low control: cells without treatment (no greater than 100% live) • HC=Median of the high control values • =High control: cells treated with 10 uM drug (no less than 0% live)
A best-fit curve was fitted by a minimum sum of squares method to the plot of live cell percent vs. compound concentration. From this an IC50 value (inhibitory concentration causing 50% cytotoxicity) was obtained. An estimate of the slope of the plot in terms of the Hill coefficient was also obtained.

[2] = 6 h, read-out: MOLP8 Caspase 3/7 AC50 at 6 h
[3] = 12 h, read-out: MOLP8 Caspase 3/7 AC50 at 12 h
[4] = 22 h, read-out: MOLP8 Caspase 3/7 AC50 at 22 h

Row | Structure (SMILES) | AC50 (MOLP8 cells; [2]) | AC50 (MOLP8 cells; [3]) | AC50 (MOLP8 cells; [4]) | IC50 [1]
1 | Cc1c(C(=O)O)n2c3ccc(Cl)c(c13)-c1c(nn(C)c1C)CSCc1cc(n(C)n1)CSc1cc(c3ccccc3c1)OCCC2 (single isomer, unassigned) [Compound 1, 1^5-chloro-1^3,2^1,2^5,6^1-tetramethyl-1^1H,2^1H,6^1H-10-oxa-4,8-dithia-1(4,1)-indola-2(4,3),6(3,5)-dipyrazola-9(3,1)-naphthalenacyclotridecaphane-1^2-carboxylic acid] | 178 nM and 129 nM | 141 nM and 182 nM | 145 nM and 170 nM | 54 nM and 106 nM
2 | Cc1c(C(=O)O)n2c3ccc(Cl)c(c13)-c1c(nn(C)c1C)CSCc1cc(n(C)n1)CSc1cc(c3ccccc3c1)OCCC2 (single isomer, unassigned) [Compound 2, 1^5-chloro-1^3,2^1,2^5,6^1-tetramethyl-1′H,2′H,6H-10-oxa-4,8-dithia-1(4,1)-indola-2(4,3),6(3,5)-dipyrazola-9(3,1)-naphthalenacyclotridecaphane-1^2-carboxylic acid] | 4570 nM and 4790 nM | 4470 nM and 4680 nM | 4270 nM and 4470 nM | 1300 nM and 7040 nM
